Read-outs that look alike come from different tables or passages of the source.
Experiments:
Lung cancer H292 = assay: MTT cytotoxicity, lung cancer H292; type: cell-based; details: Lung cancer H292, MTT, n = 6; read-out: cytotoxicity IC50
colon cancer SW480 = assay: MTT cytotoxicity, colon cancer SW480; type: cell-based; details: colon cancer SW480, MTT, n = 6; read-out: cytotoxicity IC50
Testis cell ST = assay: MTT cytotoxicity, testis cell ST; type: cell-based; details: n = 6
gastric cancer MGC803 = assay: MTT cytotoxicity, gastric cancer MGC803; type: cell-based; details: n = 6
Solubility in water = details: compound of the example (salt form) in water
normal mice = assay: in vivo; details: method of test example 1; for LD50: Table 1, formula I compounds; for LD50 vALUE: Table 2, formula II compounds
Method: Kunming mice with 4˜6 weeks old and 18 g˜22 g by weight were taken, 50% males and 50% females. […] The condition of mortality and toxicity were observed after administration. Totally observing for 14 days, LD50 value was calculated using Bliss method according to the mortality.

Lung cancer A549 = assay: MTT cytotoxicity, lung cancer A549; details: read-out: IC50 of anti-lung cancer A549, method of test example 2
Method: Cell morphologies were observed after being cultivated for 24 hours.

Esophagus cancer ECA109 = assay: MTT cytotoxicity, esophagus cancer ECA109; type: cell-based; details: n = 6

Molecule | LD50 (normal mice) [mmol/kg] | IC50 (Lung cancer A549; Table 1, formula I compounds) [µM] | also measured
CCN(CC)CCCCC1C(=O)[O][Pt]2([NH]CCC[NH]2)[O]C1=O.O=P(O)(O)O [Compound 18, 2-(4-diethylaminobutyl)-malonate•cis-(1,3-propanediamine) platinum (II) phosphate] | – | – | IC50 (Lung cancer H292): 8 µM; IC50 (colon cancer SW480): 14 µM; IC50 (Testis cell ST): 22 µM; IC50 (gastric cancer MGC803): 2 µM; solubility (Solubility in water): more than 300 mg/ml
CCN(CC)CCCCC1C(=O)[O][Pt][O]C1=O.NC1CC(O)C(O)CC1N [Compound 40] | 0.683 | 21 | –
O=C1[O][Pt]2([NH]C3CCCCC3[NH]2)[O]C(=O)C1CCCCN(C1CCCC1)C1CCCC1 (stereo not drawn) [Compound 42] | 0.826 | 5 | –
CC[N+](CC)(CC)CCCCC1C(=O)[O][Pt]([NH2])([NH2])[O]C1=O [Compound 66] | – | – | LD50 vALUE (normal mice): 0.677 mmol/kg; IC50 (Lung cancer A549; Table 2, formula II compounds): 20 µM
CCN(C)CC(CCC1C(=O)[O][Pt][O]C1=O)OC.N.N (stereo not drawn) [Compound 30] | 0.759 | 12 | –
CCCC[NH][Pt]1([NH]CCCC)[O]C(=O)C(CCCC[N+](CC)(CC)CC)C(=O)[O]1 [Compound 67] | – | – | LD50 vALUE (normal mice): 0.802 mmol/kg; IC50 (Lung cancer A549; Table 2, formula II compounds): 27 µM
CN(CCCCC1C(=O)[O][Pt]2([NH]C3CCCCC3[NH]2)[O]C1=O)Cc1ccccc1 (stereo not drawn) [Compound 57] | 0.613 | – | –
CN(CO)CCCCC1C(=O)[O][Pt]([NH2])([NH]C2CCC2)[O]C1=O (stereo not drawn) [Compound 52] | 0.687 | 41 | –
NC1CCCCC1N.O=C1[O][Pt][O]C(=O)C1CCC(Cl)CN1CCCCC1 (stereo not drawn) [Compound 36] | 0.713 | 7 | –
CCN(CC)CCCCC1C(=O)[O][Pt]2([NH]CCCC[NH]2)[O]C1=O.O=P(O)(O)O [Compound 19, 2-(4-diethylaminobutyl)-malonate•cis-(1,4-butanediamine) platinum (II) phosphate] | – | – | IC50 (Lung cancer H292): 6 µM; IC50 (colon cancer SW480): 23 µM; IC50 (Testis cell ST): 13 µM; IC50 (gastric cancer MGC803): 5 µM; solubility (Solubility in water): more than 300 mg/ml
CN(C)CCCCC1C(=O)[O][Pt][O]C1=O.NC1CCC(N)C1 [Compound 44] | 0.857 | 24 | –
O=C1[O][Pt]2([NH]C3CCCCC3[NH]2)[O]C(=O)C1CCCCN1CC=CC1 (stereo not drawn) [Compound 35] | 0.762 | 4 | –
O=C1[O][Pt]([NH]C2CCCC2)([NH]C2CCCC2)[O]C(=O)C1CCCCN(C1CC1)C1CC1 [Compound 56] | 0.816 | 57 | –
COC1CC(C)N(CCCCC2C(=O)[O][Pt][O]C2=O)C1C.NC1CCCCC1N (stereo not drawn) [Compound 39] | 0.711 | 6 | –
2-(4-diethylaminobutyl)-malonate•cis-(1, 2-trans-cyclopropanediamine) platinum (II) phosphate [Compound 16] | – | – | IC50 (Lung cancer H292): 5 µM; IC50 (colon cancer SW480): 13 µM; IC50 (Testis cell ST): 10 µM; IC50 (gastric cancer MGC803): 4 µM
C[N+](C)(C)CCCCC1C(=O)[O][Pt][O]C1=O.Cc1ccc(S(=O)(=O)[O-])cc1.N[C@@H]1CCCC[C@H]1N [Compound 29, 2-(4-trimethylaminobutyl)-malonate•cis-(1,2-trans-cyclohexanediamine) platinum(II) tosilate] | – | – | IC50 (Lung cancer H292): 7 µM; IC50 (Testis cell ST): 8 µM; IC50 (gastric cancer MGC803): 2 µM; IC50 (Esophagus cancer ECA109): 25 µM
2-(4-diethylaminobutyl)-malonate•cis-(2-aminomethyl-cyclopentylamine) platinum (II) acetate [Compound 27] | – | – | IC50 (Lung cancer H292): 4 µM; IC50 (Testis cell ST): 13 µM; IC50 (gastric cancer MGC803): 5 µM; IC50 (Esophagus cancer ECA109): 54 µM
CC1CCN(CCCCC2C(=O)[O][Pt]3([NH]C4CC=CCC4[NH]3)[O]C2=O)C1 (stereo not drawn) [Compound 33] | 0.826 | 7 | –
CC1CC(Cl)C(C)N1CCCCC1C(=O)[O][Pt]2([NH]C3CCCCC3[NH]2)[O]C1=O (stereo not drawn) [Compound 41] | 0.675 | 13 | –
CN(CCCCC1C(=O)[O][Pt]2([NH]C3CCCCC3[NH]2)[O]C1=O)C(C)(C)C (stereo not drawn) [Compound 34] | 0.905 | – | –
CN(C)CCCCC1C(=O)[O][Pt][O]C1=O.NCC1CCN1 [Compound 47] | 0.815 | 23 | –

Molecule | LD50 (normal mice) [mmol/kg] | IC50 (Lung cancer A549; Table 1, formula I compounds) [µM] | also measured
CCCC[N+](C)(C)CCCCC1C(=O)[O][Pt]2([NH][C@H]3CC(OC)C(OC)C[C@H]3[NH]2)[O]C1=O (stereo partly drawn) [Compound 65] | – | – | LD50 vALUE (normal mice): 0.615 mmol/kg; IC50 (Lung cancer A549; Table 2, formula II compounds): 16 µM
CCN(C)CC(O)CCC1C(=O)[O][Pt][O]C1=O.NC1CCCCC1N (stereo not drawn) [Compound 54] | 0.792 | – | –
O=C1[O][Pt]2([NH]C3CCCCC3[NH]2)[O]C(=O)C1CCCCN1CCOCC1 (stereo not drawn) [Compound 51] | 0.654 | 26 | –
CCN(C)CC(CCC1C(=O)[O][Pt][O]C1=O)OC.NC1CCCCC1N (stereo not drawn) [Compound 31] | 0.732 | 5 | –
CN(C)CCCCC1C(=O)[O][Pt][O]C1=O.NCC1CN1 [Compound 46] | 0.823 | 27 | –
CN(CCCCC1C(=O)[O][Pt]2([NH]C3CCCCC3[NH]2)[O]C1=O)C1CCCC1 (stereo not drawn) [Compound 43] | 0.841 | 5 | –
CN(C)CCCCC1C(=O)[O][Pt][O]C1=O.NCC1CCCN1 [Compound 48] | 0.831 | 31 | –
CC1CC(C)[NH][Pt]2([NH]1)[O]C(=O)C(CCCCN(C)C)C(=O)[O]2 (stereo not drawn) [Compound 45] | 0.834 | 31 | –
CN(CCCCC1C(=O)[O][Pt]2([NH]C3CCCCC3[NH]2)[O]C1=O)Cc1ccc(Cl)cc1 (stereo not drawn) [Compound 58] | 0.607 | 37 | –
CCCCN(C)CCCCC1C(=O)[O][Pt]2([NH][C@H]3CCCC[C@H]3[NH]2)[O]C1=O (stereo partly drawn) [Compound 60] | 0.875 | 9 | –
CN(CCCCC1C(=O)[O][Pt]([NH2])([NH2])[O]C1=O)Cc1ccc(Cl)cc1F [Compound 59] | 0.598 | 68 | –
CCN(CC)CCCCC1C(=O)[O][Pt]([NH]C2CCCC2)([NH]C2CCCC2)[O]C1=O [Compound 55] | 0.852 | 61 | –
CCN(CC)CCCCC1C(=O)[O][Pt]2([NH]C3CCC3[NH]2)[O]C1=O.O=C(O)CCC(=O)O (racemic) [Compound 15, 2-(4-diethylaminobutyl)-malonate•cis-(1,2-trans-cyclobutanediamine) platinum (II) succinate] | – | – | IC50 (Lung cancer H292): 10 µM; IC50 (colon cancer SW480): 18 µM; IC50 (gastric cancer MGC803): 3 µM
CCN(CC)CCCCC1C(=O)[O][Pt]2([NH]CC(CO)(CO)C[NH]2)[O]C1=O.O=P(O)(O)O [Compound 21, 2-(4-diethylaminobutyl)-malonate•cis-1,3-(2,2-hydroxymethyl)-propanediamine platinum (II) phosphate] | – | – | IC50 (Lung cancer H292): 12 µM; IC50 (Testis cell ST): 13 µM; IC50 (gastric cancer MGC803): 5 µM; solubility (Solubility in water): more than 300 mg/ml
2-(4-diethylaminobutyl)-malonate•cis-dicyclopentylamine platinum (II) acetate [Compound 25] | – | – | IC50 (Lung cancer H292): 6 µM; IC50 (Testis cell ST): 7 µM; IC50 (gastric cancer MGC803): 3 µM; IC50 (Esophagus cancer ECA109): 29 µM
CCCN.CCN(CC)CCCCC1C(=O)[O][Pt][O]C1=O.NC1CC=NC1 [Compound 63] | 0.804 | 25 | –
CC1CCCN1CCCCC1C(=O)[O][Pt]2([NH]C3CCCCC3[NH]2)[O]C1=O (stereo not drawn) [Compound 38] | 0.818 | 6 | –
CN(C)CCCCC1C(=O)[O][Pt][O]C1=O.NCC1CCCCN1 [Compound 49] | 0.817 | 45 | –
CC1CCN(CCCCC2C(=O)[O][Pt]3([NH]C4CCCCC4[NH]3)[O]C2=O)CC1 (stereo not drawn) [Compound 37] | 0.825 | 9 | –
CCN(CC)CCCCC1C(=O)[O][Pt]2([NH]CC[NH]2)[O]C1=O.Cc1ccc(S(=O)(=O)O)cc1 [Compound 17, 2-(4-diethylaminobutyl)-malonate•cis-(1,2-ethylenediamine) platinum (II) tosilate] | – | – | IC50 (Lung cancer H292): 4 µM; IC50 (colon cancer SW480): 7 µM; IC50 (Testis cell ST): 16 µM; IC50 (gastric cancer MGC803): 5 µM; solubility (Solubility in water): more than 300 mg/ml

Source: US9725477B2, “Platinum compounds of malonic acid derivative having leaving group containing amino or alkylamino” (BEIJING FSWELCOME TECHNOLOGY DEVELOPMENT CO., LTD, priority 2012, dated 2017)
